Data set [1] is described as follows: In vitro maximum tolerated dose (MTL), Vero cells. Conditions: monkey, vero cells, In Vitro. The class given is cell-based, African Green Monkey.
Another data set has as its system herpes simplex virus. Nature of the data set: In Vivo - Intravaginal Herpes Virus Infection in Mice. Conditions: Mus musculus, 336 h, oral or intraperitoneal, b.i.d. 5 days, NA = Not active at dose levels tested, read-out: In Vivo MED (Minimum effective dose). The arrangement: species or system albino mice. The procedure:
In Vivo - Intravaginal Herpes Virus Infection in Mice
Approximately 1 hr. prior to infection, the vaginas of 15 gm albino mice were swabbed with cotton saturated with 0.1 N NaOH to remove vaginal secretions and to irritate the vaginal mucosa slightly. At the proper time, 0.05 ml of an appropriate dose of herpes simplex virus was placed deep in the vagina. Starting 2.5 hrs. prior to infection, the mice were medicated either orally or intraperitoneally. Medication was continued daily for a total of 5 days on a b.i.d. regimen. The test was terminated after 14 days. A comparison of the number of surviving mice and/or extension of survival was made at the end of the test. The criterion for activity was a statistically significant extension of the average survival time of the test group over that of the control mice in two experiments.

Details of data set [2]: species or system albino mice. Conditions: mouse.
Data set [3] concerns Vero (African Green Monkey Kidney) cells. Kind of data set: In vitro maximum tolerated dose (MTL), Vero cells. The data set is classed as cell-based.

Take `NC(=O)c1cn(-c2ccc(Br)cc2)c2cc(-c3ccncc3)ccc2c1=O` [Example 31, 1-(4-Bromophenyl)-1,4-dihydro-7-(4-pyridinyl)-4-oxo-3quinolinecarboxamide]: the MNTC at 72 h in data set [1] was > 12.5 µg/mL. Moreover, the minimal effective dose with herpes simplex virus was determined as 50 mg/kg/day. In data set [2], the “In Vivo MTL (Maximum tolerated dose)” value was 50.
For `NC(=O)c1cn(-c2ccc(Cl)c(Cl)c2)c2cc(-c3ccncc3)ccc2c1=O` [Example 14, 1-(3,4-Dichlorophenyl)-1,4-dihydro-4-oxo-7-(4-pyridinyl)-3-quinolinecarboxamide] the same measures were > 12.5 µg/mL, 50 mg/kg/day and 100.
On the same counts, the results for `NC(=O)c1cn(-c2ccc(F)cc2)c2cc(-c3ccncc3)ccc2c1=O` [Example 1h, 1-(4-fluorophenyl)-1,4-dihydro-4-oxo-7-(4-pyridinyl)-3-quinolinecarboxamide] are > 3.1 µg/mL, 12.5 to 25 mg/kg/day and 50-100.
On the same counts, the results for `Cn1c(O)c(C(N)=O)c(=O)c2ccc(-c3ccncc3)cc21` [Example 39b, 1,4-Dihydro-2-hydroxy-1-methyl-4-oxo-7-(4-pyridinyl)3-quinolinecarboxamide] are 3.1 µg/mL, 150 to 200 mg/kg/day and 150.
Regarding `CCn1c(=O)c(C(N)=O)c(O)c2ccc(-c3ccncc3)cc21` [Example 38c, 1-Ethyl-1,2-dihydro-4-hydroxy-2-oxo-7-(4-pyridinyl)-3quinolinecarboxamide], in data set [1], the MNTC at 72 h was > 12.5 µg/mL. Also, the minimal effective dose in the data set on herpes simplex virus was in the range of 100 to 200 mg/kg/day. Moreover, in data set [2], the “In Vivo MTL (Maximum tolerated dose)” value is given as 100.
For `CCn1cc(C(=O)NC)c(=O)c2ccc(-c3ccncc3)cc21` [Example 28, 1-Ethyl-1,4-dihydro-N-methyl-4-oxo-7-(4-pyridinyl)-3quinolinecarboxamide] the same measures were > 25 µg/mL, 50 mg/kg/day and 50.
As to `NC(=O)c1cn(-c2ccccc2)c2cc(-c3ccncc3)ccc2c1=O` [Example 45e, 1,4-Dihydro-4-oxo-1-phenyl-7-(4-pyridinyl)-3-quinolinecarboxamide], in data set [3] (In Vitro, Vero cells, 4320 min), the “In Vitro MTL (Maximum tolerated dose)” value is listed as > 6.25. Further, the minimal effective dose in the data set with herpes simplex virus was determined as 25 mg/kg/day. Further, the “In Vivo MTL (Maximum tolerated dose)” value in data set [2] stood at 50.
On to “1,4-Dihydro-1-(4-fluorophenyl)-7-(3-methyl-5-thiazolyl)-4-oxo-3-quinolinecarboxamide [Example 37d]”, for which, in data set [3] (monkey, vero cells, 72 h), the “In Vitro MTL (Maximum tolerated dose)” value was > 100. For the same compound, in data set [2], the “In Vivo MTL (Maximum tolerated dose)” value is recorded as > 100.
As for `NC(=O)c1cn(-c2ccc(F)cc2)c2cc(-c3cc[n+]([O-])cc3)ccc2c1=O` [Example 2, 1-(4-Fluorophenyl)-1,4-dihydro-4-oxo-7-(N-oxide-4-pyridinyl)-3-quinolinecarboxamide], the MNTC at 72 h in data set [1] was > 12.5 µg/mL. For the same compound, the minimal effective dose with herpes simplex virus was found to be 25 mg/kg/day. The “In Vivo MTL (Maximum tolerated dose)” value in data set [2] worked out at 100.
As for `NC(=O)c1cn(-c2cccc(F)c2)c2cc(-c3ccncc3)ccc2c1=O` [Example 46e, 1,4-Dihydro-1-(3-fluorophenyl)-4-oxo-7-(4-pyridinyl)3-quinolinecarboxamide], the MNTC at 72 h in data set [1] is > 6.25 µg/mL. Moreover, the minimal effective dose with herpes simplex virus lay within 25 to 50 mg/kg/day. The “In Vivo MTL (Maximum tolerated dose)” value in data set [2] was determined as 50.
On the same counts, the results for `NC(=O)c1cn(-c2ccncc2)c2cc(-c3ccncc3)ccc2c1=O` [Example 10, 1,4-Dihydro-4-oxo-1,7-di(4-pyridinyl)-3-quinolinecarboxamide] are > 200 µg/mL, 50 to 75 mg/kg/day and 75.
With `NC(=O)c1c(N)n(-c2ccc(F)cc2)c2cc(-c3ccncc3)ccc2c1=O` [Example 41c, 2-Amino-1,4-dihydro-1-(4-fluorophenyl)-4-oxo-7-(4-pyriridinyl)-3-quinolinecarboxamide], the MNTC at 72 h in data set [1] was > 100 µg/mL. Moreover, the minimal effective dose with herpes simplex virus worked out at 50 mg/kg/day. In data set [2], the “In Vivo MTL (Maximum tolerated dose)” value amounted to 100.

These data come from patent US4959363A, “Quinolonecarboxamide compounds, their preparation and use as antivirals” (Sterling Drug Inc., priority 1989, dated 1990).
